Among the test systems are A498; HL-60; IGROV-1; LOX IMVI; M14; MCF7; MDA-MB-435; MDA-N; MOLT-4; NCI-H460; RPMI-8226; SK-MEL-28; SNB-19; SW-620; UACC-62; COLO 205; Malme-3M; NCI-H23; SK-MEL-5; HCC 2998.
What all share (assay): DTP human tumour cell line panel, 48 h

Molecules are shown by their SMILES.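 In this assay, cells in 96-well plates receive the compound at five concentrations for 48 hours. Endpoints are linearly interpolated between the surrounding concentrations. GI50 = concentration required for 50% inhibition of growth.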 Calls of active or inactive are those of the source. Rule as the data show it: active = GI50 up to about 1.1 µM and inactive = higher. Some results are limits rather than exact numbers.

For the molecule `CNc1cc([N+](=O)[O-])ccc1C(=O)N1CCC[C@H]1CO`, the GI50 in the assay with A498, with HL-60, in the assay on IGROV-1, in the assay on LOX IMVI, with M14 and in the assay on MCF7 was > 100 µM (inactive) in each case. Moreover, the GI50 in the assay on MDA-MB-435, with MDA-N, in the assay on MOLT-4, in the assay with NCI-H460, with RPMI-8226 and with SK-MEL-28 was > 100 µM (inactive) throughout. For the same molecule, the GI50 with SNB-19, in the assay on SW-620 and in the assay on UACC-62 was > 100 µM (inactive) throughout.

Regarding `COc1ccccc1N/C(SCc1ccccc1)=C(/C(Cl)=C(Cl)Cl)[N+](=O)[O-]`, the GI50 was 82.8 µM (inactive) in the assay with A498; 19.5 µM (inactive) in the assay with COLO 205; 27 µM (inactive) with M14; 25.9 µM (inactive) in the assay on MCF7; 17.3 µM (inactive) in the assay with MDA-MB-435; 28.9 µM (inactive) in the assay on MDA-N. Also, the GI50 is 28.2 µM (inactive) with MOLT-4; 17.4 µM (inactive) in the assay with Malme-3M; 16.1 µM (inactive) with NCI-H23; 58.2 µM (inactive) with NCI-H460; 26.6 µM (inactive) in the assay with RPMI-8226; 15.1 µM (inactive) in the assay on SK-MEL-28. Also, the results for the GI50 in the assay on SNB-19, in the assay on SW-620 and in the assay with UACC-62 were 39.4 µM (inactive), 17.8 µM (inactive) and 48 µM (inactive), respectively.

With `CS(=O)(=O)OCC1OC(n2ccc(NC(=O)c3ccccc3)nc2=O)CC1OS(C)(=O)=O` (configuration not stated), the GI50 in the assay on A498, in the assay with COLO 205, in the assay with HL-60, in the assay on IGROV-1, in the assay with LOX IMVI and in the assay on M14 was > 100 µM (inactive) each time. Also, the GI50 with MCF7, in the assay with MDA-MB-435, in the assay on MDA-N, with MOLT-4, in the assay with NCI-H23 and with NCI-H460 was > 100 µM (inactive) in each case. Also, the GI50 in the assay with RPMI-8226, with SK-MEL-28, with SK-MEL-5, in the assay on SNB-19, with SW-620 and with UACC-62 was > 100 µM (inactive) throughout.

For `C/C=C(/C)C(=O)O[C@@H]1CCN2CC[C@H](COC(=O)/C(=C/C)CO)C12` (some centres not stated), the GI50 was 20.6 µM (inactive) in the assay with COLO 205; 20.7 µM (inactive) with HCC 2998; > 59.8 µM (inactive) with HL-60; > 100 µM (inactive) in the assay on IGROV-1; 61.8 µM (inactive) in the assay with LOX IMVI; 19.6 µM (inactive) in the assay on M14. For the same molecule, the GI50 is > 100 µM (inactive) with MCF7; 63.1 µM (inactive) in the assay with MDA-MB-435; 39.2 µM (inactive) in the assay with MDA-N; 25.9 µM (inactive) in the assay on MOLT-4; 32 µM (inactive) in the assay on Malme-3M; > 100 µM (inactive) with NCI-H23. Further, the GI50 in the assay with NCI-H460 was 59.6 µM (inactive); in the assay with RPMI-8226 it was 33.5 µM (inactive); with SK-MEL-28 it was > 75 µM (inactive); in the assay with SK-MEL-5 it was 26.9 µM (inactive); in the assay on SNB-19, > 100 µM (inactive); in the assay with SW-620, > 100 µM (inactive). In the assay on UACC-62, the GI50 is > 100 µM (inactive).

With `CC(=O)NC(CS/N=N/c1[nH]cnc1C(N)=O)C(=O)O` (configuration not stated), the GI50 was 7.24 µM (inactive) in the assay on COLO 205; 4.41 µM (inactive) in the assay on HCC 2998; 1.16 µM (inactive) in the assay on HL-60; 5.81 µM (inactive) with IGROV-1; 0.343 µM (active) in the assay on LOX IMVI; 2.59 µM (inactive) in the assay on M14. Moreover, the GI50 in the assay with MCF7 was > 46.8 µM (inactive); in the assay with MDA-MB-435, 10.4 µM (inactive); in the assay on MDA-N, 5.05 µM (inactive); in the assay on MOLT-4 it was 3.38 µM (inactive); in the assay with Malme-3M it was 2.16 µM (inactive); in the assay with NCI-H23, 38.9 µM (inactive). The GI50 in the assay with NCI-H460 was 5.57 µM (inactive); in the assay on RPMI-8226 it was 1.46 µM (inactive); in the assay on SK-MEL-28 it was > 100 µM (inactive); in the assay with SK-MEL-5 it was 27 µM (inactive); in the assay with SNB-19 it was > 100 µM (inactive); in the assay on SW-620, 6.15 µM (inactive). Also, in the assay with UACC-62, the GI50 was 4.21 µM (inactive).

On to `Cc1cc(C)nc(NS(=O)(=O)c2ccc(NNc3c4ccccc4nc4c(C(=O)Nc5ccc(S(N)(=O)=O)cc5)cccc34)cc2)n1`, for which the GI50 is > 100 µM (inactive) with COLO 205; 20.1 µM (inactive) in the assay with HCC 2998; 34.9 µM (inactive) in the assay with HL-60; 34.6 µM (inactive) with IGROV-1; 19.2 µM (inactive) with LOX IMVI; > 100 µM (inactive) in the assay on M14. Further, the GI50 in the assay on MCF7 was 53.5 µM (inactive); in the assay with MDA-MB-435, 47.2 µM (inactive); in the assay on MDA-N, 49.5 µM (inactive); in the assay with MOLT-4, 17.1 µM (inactive); with Malme-3M, 43.3 µM (inactive); with NCI-H23, 21.2 µM (inactive). In addition, the GI50 was 37.6 µM (inactive) in the assay on NCI-H460; 23.3 µM (inactive) with RPMI-8226; 25.1 µM (inactive) in the assay on SK-MEL-28; 30.5 µM (inactive) in the assay on SK-MEL-5; 27.8 µM (inactive) in the assay with SNB-19; 45.3 µM (inactive) in the assay on SW-620. Besides, the GI50 in the assay on UACC-62 is 27.7 µM (inactive).

On to `C(/C=N/N=C1NCCCCN1)=N\N=C1NCCCCN1`, for which the GI50 with COLO 205, with HCC 2998, with IGROV-1, in the assay with LOX IMVI, in the assay on M14 and in the assay on MCF7 was > 100 µM (inactive) throughout. Moreover, the GI50 in the assay on MDA-MB-435, in the assay with MDA-N, in the assay with MOLT-4, in the assay with Malme-3M, in the assay with NCI-H23 and in the assay on NCI-H460 was > 100 µM (inactive) throughout. Besides, the GI50 in the assay with SK-MEL-28, in the assay with SK-MEL-5, in the assay on SNB-19, in the assay with SW-620 and with UACC-62 was > 100 µM (inactive) each time.

`OCC1c2ccccc2-n2nc(-c3ccccc3)c(O)c21` (configuration not stated): the GI50 in the assay on COLO 205 was 13.5 µM (inactive); in the assay on HCC 2998, 16.3 µM (inactive); in the assay on IGROV-1, 36.2 µM (inactive); in the assay on LOX IMVI, 20.7 µM (inactive); in the assay on MCF7, 14.4 µM (inactive); in the assay on MDA-MB-435, 26.2 µM (inactive). In addition, the GI50 in the assay on MDA-N was 46.1 µM (inactive); in the assay on MOLT-4 it was 31 µM (inactive); with Malme-3M it was 17.1 µM (inactive); in the assay with NCI-H23 it was 54.7 µM (inactive); in the assay with NCI-H460 it was 29.9 µM (inactive); in the assay with SK-MEL-28, 58.1 µM (inactive). Further, the GI50 was 33.3 µM (inactive) in the assay on SK-MEL-5, 37.9 µM (inactive) in the assay on SNB-19, 29.3 µM (inactive) with SW-620 and 20.7 µM (inactive) in the assay on UACC-62.

`O=C1c2ccccc2-c2c1c1ccccc1c(=O)n2Cc1ccco1`: the GI50 in the assay with A498, with COLO 205, with HL-60, in the assay on IGROV-1, with LOX IMVI and with M14 was > 100 µM (inactive) in each case. Besides, the GI50 with MCF7, in the assay with MDA-MB-435, with MDA-N, in the assay on MOLT-4, in the assay with Malme-3M and with NCI-H23 was > 100 µM (inactive) throughout. Moreover, the GI50 in the assay with RPMI-8226, in the assay on SK-MEL-28, in the assay with SK-MEL-5, in the assay on SW-620 and in the assay on UACC-62 was > 100 µM (inactive) throughout.

Consider `CCOP(=O)(OCC)C(C)(C)N(C)/C(F)=N/C(F)(F)F`, for which the GI50 in the assay on COLO 205, in the assay on HCC 2998, in the assay with HL-60, in the assay on IGROV-1, in the assay with LOX IMVI and in the assay on M14 was > 100 µM (inactive) each time. Besides, the GI50 with MCF7, with MDA-MB-435, with MDA-N, in the assay with MOLT-4, with Malme-3M and with NCI-H23 was > 100 µM (inactive) each time. For the same molecule, the GI50 in the assay on NCI-H460, in the assay on RPMI-8226, in the assay on SK-MEL-28, in the assay with SK-MEL-5, in the assay with SW-620 and in the assay on UACC-62 was > 100 µM (inactive) each time.

Turning to `C#C[C@]1(O)[C@@H](CO)O[C@@H](n2ccc(N)nc2=O)[C@@H]1O`, the GI50 is < 0.0111 µM (active) in the assay with COLO 205; < 0.0135 µM (active) in the assay on HCC 2998; < 0.0147 µM (active) in the assay on HL-60; 0.028 µM (active) in the assay on IGROV-1; < 0.01 µM (active) in the assay on LOX IMVI; 0.107 µM (active) in the assay with M14. Further, the GI50 in the assay on MCF7 was < 0.01 µM (active); in the assay on MDA-MB-435, < 0.01 µM (active); with MDA-N it was 0.0121 µM (active); in the assay on MOLT-4 it was 0.0101 µM (active); in the assay on Malme-3M, 0.0337 µM (active); in the assay with NCI-H23, 0.0902 µM (active). The GI50 with NCI-H460 is < 0.01 µM (active); in the assay with RPMI-8226, < 0.01 µM (active); with SK-MEL-28, 0.0728 µM (active); with SK-MEL-5, 0.0139 µM (active); in the assay on SNB-19, 0.0706 µM (active); with SW-620, < 0.01 µM (active). Further, the GI50 with UACC-62 was 0.0352 µM (active).

The term GI50 denotes the concentration that inhibits growth by half.

These data come from ChEMBL document CHEMBL1201862, “PubChem BioAssay data set” (2004).
